Several values for one entry are separate records, joined by “and”; a condition that tells them apart may be missing. Equal entries are not always repeated.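 Where inhibition never reached the appropriate level, the endpoint shown equals the highest concentration tested. Otherwise, values were interpolated linearly from a five-concentration, 48-hour dose response in 96-well plates. Here, GI50 denotes the concentration required for 50% inhibition of growth. The concentration for full growth arrest is given as TGI.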
Assays:
Assay in all cases: NCI tumour cell line growth inhibition, 48 h
[1] = test system: DLD-1 colon
[2] = test system: PC-3 prostate
[3] = test system: MDA-MB-435
[4] = test system: NCI-H226 lung
[5] = test system: MALME-3M melanoma
[6] = test system: SN12K1 renal
[7] = test system: NCI-H522 lung
[8] = test system: HT29 colon
[9] = test system: HOP-92 NSCLC
[10] = test system: SF-295 CNS
[11] = test system: HL-60(TB) leukemia
[12] = test system: RXF 393 renal
[13] = test system: HOP-62 NSCLC
[14] = test system: SNB-19 CNS
[15] = test system: KM12 colon
[16] = test system: MCF7 breast
[17] = test system: SF-268 CNS
[18] = test system: SNB-75 CNS
[19] = test system: SK-MEL-5 melanoma
[20] = test system: P388 leukemia
[21] = test system: OVCAR-5 ovarian
[22] = test system: NCI-H460 lung
[23] = test system: A498 renal
[24] = test system: NCI/ADR-RES ovarian
[25] = test system: COLO 205 colon
[26] = test system: P388/ADR leukemia
[27] = test system: HS 578T breast
[28] = test system: SR leukemia
[29] = test system: A549 NSCLC
[30] = test system: XF 498 CNS
[31] = test system: NCI-H23 lung
[32] = test system: RPMI-8226 leukemia
[33] = test system: HOP-18 NSCLC
[34] = test system: KM20L2 colon
[35] = test system: 786-0 renal
[36] = test system: SK-OV-3 ovarian
[37] = test system: ACHN renal
[38] = test system: TK-10 renal
[39] = test system: MDA-MB-231 breast
[40] = test system: SNB-78 CNS
[41] = test system: SK-MEL-2 melanoma
[42] = test system: DMS 273 small cell lung
[43] = test system: MOLT-4 leukemia
[44] = test system: UO-31 renal
[45] = test system: BT-549 breast
[46] = test system: DMS 114 small cell lung
[47] = test system: U251 CNS
[48] = test system: UACC-257 melanoma
[49] = test system: SW-620 colon
[50] = test system: M14 melanoma
[51] = test system: OVCAR-4 ovarian
[52] = test system: K-562 leukemia
[53] = test system: DU-145 prostate
[54] = test system: EKVX NSCLC
[55] = test system: M19-MEL melanoma

What does the source list for `COc1ccc2c(c1)c1c(C)c3cnccc3c(C)c1n2CCCN`?
TGI [1]: 741 nM; TGI [2]: 302 nM; TGI [3]: 190 nM; GI50 [4]: 558 nM and 416 nM; TGI [4]: 1300 nM and 1600 nM; GI50 [5]: 225 nM; TGI [5]: 1420 nM and 609 nM; TGI [6]: 239 nM; GI50 [7]: 85.3 nM; TGI [7]: 763 nM and 242 nM; GI50 [8]: < 11.4 nM; TGI [8]: 734 nM and 182 nM; GI50 [9]: 352 nM; TGI [9]: 739 nM and 1130 nM; GI50 [10]: 147 nM; TGI [10]: 621 nM and 1000 nM; GI50 [11]: 450 nM and 238 nM; TGI [11]: 977 nM and 1020 nM; GI50 [12]: 145 nM; TGI [12]: 168 nM and 307 nM; GI50 [13]: 18.7 nM; TGI [13]: 984 nM and 279 nM; GI50 [14]: 33.7 nM; TGI [14]: 1440 nM and 512 nM; GI50 [15]: 79.8 nM and 29.8 nM; TGI [15]: 483 nM and 213 nM; GI50 [16]: 16.2 nM; TGI [16]: 663 nM and 108 nM; GI50 [17]: 63.3 nM and 57.7 nM; TGI [17]: 204 nM and 425 nM; GI50 [18]: 64 nM; TGI [18]: 791 nM and 206 nM; GI50 [19]: 282 nM; TGI [19]: 746 nM and 1060 nM; TGI [20]: 98.7 nM; GI50 [21]: 94.6 nM; TGI [21]: 1120 nM and 542 nM; GI50 [22]: 19.9 nM; TGI [22]: 282 nM and 135 nM; GI50 [23]: 317 nM; TGI [23]: 856 nM and 885 nM; GI50 [24]: 217 nM; TGI [24]: 696 nM and 759 nM; GI50 [25]: 82.2 nM; TGI [25]: 751 nM and 259 nM; TGI [26]: 725 nM; TGI [27]: 953 nM; TGI [28]: 118 nM; GI50 [29]: 18.6 nM; TGI [30]: 942 nM; TGI [31]: 601 nM; GI50 [32]: 93.1 nM and 89.4 nM; TGI [32]: 443 nM and 555 nM; TGI [33]: 1550 nM; TGI [34]: 685 nM; TGI [35]: 634 nM; GI50 [36]: 202 nM; TGI [36]: 1140 nM and 713 nM; TGI [37]: 695 nM; TGI [38]: 2750 nM; TGI [39]: 381 nM; TGI [40]: 653 nM; GI50 [41]: 193 nM; TGI [41]: 815 nM and 393 nM; TGI [42]: 382 nM; TGI [43]: 578 nM and 139 nM; GI50 [44]: 12.5 nM; TGI [44]: 1360 nM and 168 nM; TGI [45]: 2600 nM; TGI [46]: 669 nM; GI50 [47]: 171 nM and 34 nM; TGI [47]: 721 nM and 383 nM; TGI [48]: 1000 nM and 1690 nM; GI50 [49]: < 10 nM; TGI [49]: 584 nM and 602 nM; TGI [50]: 330 nM; GI50 [51]: 16.1 nM; TGI [51]: 394 nM and 143 nM; GI50 [52]: 71.2 nM and 13.9 nM; TGI [52]: 637 nM and 382 nM; TGI [53]: 389 nM; GI50 [54]: 106 nM; TGI [54]: 771 nM and 405 nM; TGI [55]: 633 nM
